In US20090068158A1, “THYMIDYLATE KINASE MUTANTS AND USES THEREOF” (priority 2005, published 2009):

B1: F105Y+R200A: modified human tmpk combining mutations F105Y and R200A (protein, UniProt P23919 2-212, looked up, variant F105Y R200A)
Thymidylate kinase: AARRGALIVLEGVDRAGKSTQSRKLVEALCAAGHRAELLRFPERSTEIGKLLSSYLQKKSDVEDHSVHLLFSANRWEQVPLIKEKLSQGVTLVVDRYAFSGVAYTGAKENFSLDWCKQPDVGLPKPDLVLFLQLQLADAAKRGAFGHERYENGAFQERALRCFHQLMKDTTLNWKMVDASKSIEAVHEDIRVLSEDAIATATEKPLGELWK

Tests used:
Jurkat cells [1] = experiment: AZT sensitivity of LV-tmpk-transduced Jurkat cells (MTT cell viability assay); format: cell-based, human; conditions: Homo sapiens, 120 h, LV-tmpk mutant transduced Jurkat cells, AZT 0-100 μM, 5 days, read-out: IC50 of AZT for killing of transduced cells
Procedure: Transduced Jurkat cells and the single-cell clones were seeded in 96 well plates (2×10^5/well) in 200 μl of medium containing increasing concentrations of AZT (0, 1, 10 and 100 μM). The medium was changed daily. […] Data are expressed as mean±standard error of mean (SEM).
To examine the AZT-mediated celikilling activity of tmpk cDNA, each of transduced cells were incubated with the increasing concentration of AZT. After incubating both non-transduced and LV-transduced cells with AZT for […], cell viability was determined using MTT assay (FIG. 4A).
Transduced Jurkat cells and single-cell clones were seeded in 96 well plates (2×10^5 cells/well) in 200 μl of the RPMI medium described above with increasing concentrations of AZT (0, 0.1, 1, 10, 100 μM, and 1 mM). The medium was changed daily. After 4 days of culture, cell viability was determined by using Cell Titer 96 Aqueous One Solution Cell Proliferation Assay kit (Promega, Madison, Wis.).

Jurkat cells [2] = experiment: AZT sensitivity in LV-TMPK (Lentigen) transduced Jurkat cells; format: cell-based, human; conditions: increasing concentrations of AZT
Procedure: The function of tmpk was tested by assessing sensitivity to AZT (FIG. 21).

Jurkat cells [3] = experiment: HPLC determination of intracellular AZT metabolites in cells treated with 100 μM AZT; format: cell-based, human; conditions: non-transduced Jurkat cells, 100 μM AZT for 36 h
Procedure: The cells were cultured in the presence of 100 μM AZT for 36 hrs. 10^7 cells were homogenized by sonication in 100 μl of 5% (w/v) trichloroacetic acid. The supernatant is collected after homogenate had been centrifuged at 10,000×g for 15 min at 4° C. The trichloroacetic acid was removed by extraction with an equal volume of 20% tri-n-octylamine in pentane. The neutralized aqueous fraction is directly injected into HPLC. Separation of AZT and its metabolites was performed on a C18 column (Waters) with a mobile phase composed of 0.2 M phosphate buffer containing 4 mM tetrabutylammonium hydrogen sulfate (pH 7.5) and acetonitrile in the ratio of 97:3 (v/v). The mobile phase was pumped at a flow rate of 1.5 ml/min. The UV absorbance was monitored at 270 nm. Five million cell equivalents were injected and analyzed in triplicate.
Cells were cultured in the presence of 100 μM AZT for 36 h. 10^7 cells were homogenized by sonication in 100 μl of 5% (w/v) trichloroacetic acid (TCA). The supernatant was collected after centrifugation at 10,000×g for 15 min at 4° C. TCA was removed by extraction with an equal volume of 20% tri-n-octylamine in pentane. The neutralized aqueous fraction was directly injected into the HPLC machine (Waters, Milford. MA). Separation of AZT and its metabolites were performed on a C18 column (Waters), with a mobile phase composed of 0.2 M phosphate buffer containing 4 mM tetrabutylammonium hydrogen sulfate (pH 7.5) and acetonitrile in the ratio of 97:3 (v/v)^48 at a flow rate of 1.5 ml/min. The UV absorbance was monitored at 270 nm. Standards for each AZT-metabolite (AZT-MP, AZT-DP, and AZT-TP) were purchased from Moravek Biochemicals (Brea, Calif.). Five million cell equivalents were injected and analyzed in triplicate.

[4] = Enzymatic activity of tmpk mutants for AZT-MP; format: biochemical, human
[5] = relative to wild-type tmpk; cited from earlier work

Molecule | IC50 (Jurkat cells [1]) [nM] | AZT sensitivity of transduced cells (in words) (Jurkat cells [2]) | intracellular ratio of AZT-TP to AZT-MP in non-transduced cells (Jurkat cells [3]) | enzymatic activity / catalytic conversion compared to wild-type tmpk (in words) [4] | enhanced activity for AZT-MP [5]
Cc1cn([C@H]2C[C@H](N=[N+]=[N-])[C@@H](CO)O2)c(=O)[nH]c1=O [AZT, Zidovudine, reference compound] | 2000 | dose dependent killing | 0.02 |  | 
B1 |  |  |  | superior enzymatic activity | approximately 200 fold
